Measurements: patent US10105357B2, “Indication of antibiotic drugs for preparation of cancer inhibition pharmaceutical composition” (LAUNX BIOMEDICAL CO., LTD., priority 2014, dated 2018)
Read-outs that look alike come from different tables or passages of the source.

Tests used:
Type in all cases: cell-based, human
[1] = test system: T24; assay: Cell viability analysis, bladder cancer T24; settings: Homo sapiens, T-24, 72 h, read-out: The results of antibiotic drug inhibiting cancer cell lines (cell viability analysis), T24
[2] = test system: BxPC-3; assay: Cell viability analysis, pancreatic cancer BxPC-3; settings: Homo sapiens, BXPC-3, 72 h, read-out: The results of antibiotic drug inhibiting cancer cell lines (cell viability analysis), BxPC-3
[3] = test system: MKN-45 (Gastric Adenocarcinoma); assay: Cell viability analysis, gastric cancer MKN-45; settings: Homo sapiens, MKN-45, 72 h
[4] = test system: A375 (Amelanotic Melanoma); assay: Cell viability analysis, skin cancer A375; settings: Homo sapiens, A-375, 72 h
[5] = test system: HepG2 (Hepatocellular Carcinoma); assay: Cell viability analysis, hepatic cancer HepG2; settings: Homo sapiens, HepG2, 72 h
[6] = test system: 786-O (Renal adenocarcinoma); assay: Cell viability analysis, renal cancer 786-O; settings: Homo sapiens, 786-0, 72 h, read-out: The results of antibiotic drug inhibiting cancer cell lines (cell viability analysis), 786-O
[7] = test system: U-2OS; assay: Cell viability analysis, osteosarcoma U-2OS; settings: Homo sapiens, U2OS, 72 h, read-out: The results of antibiotic drug inhibiting cancer cell lines (cell viability analysis), U2OS
[8] = test system: AsPC-1; assay: Cell viability analysis, pancreatic cancer AsPC-1; settings: Homo sapiens, ASPC1, 72 h, read-out: The results of antibiotic drug inhibiting cancer cell lines (cell viability analysis), AsPC-1
[9] = test system: cancer cell lines; assay: Cell viability analysis (WST-1) on cancer cell lines; settings: drug 10 μM, 72 hours, WST-1; Table 3
[10] = test system: MDA-MB-231 (Mammary Gland, Adenocarcinoma); assay: Cell viability analysis, breast cancer MDA-MB-231; settings: Homo sapiens, MDA-MB-231, 72 h, read-out: The results of antibiotic drug inhibiting cancer cell lines (cell viability analysis), MDA-MB231
[11] = test system: TOV-21G; assay: Cell viability analysis, ovarian cancer TOV-21G; settings: Homo sapiens, TOV21G, 72 h, read-out: The results of antibiotic drug inhibiting cancer cell lines (cell viability analysis), TOV-21G
[12] = test system: NIH: OVCAR-3; assay: Cell viability analysis, ovarian cancer NIH: OVCAR-3; settings: Homo sapiens, OVCAR-3, 72 h, read-out: The results of antibiotic drug inhibiting cancer cell lines (cell viability analysis), NIH-OVCAR-3
[13] = test system: HI650 (Lung Adenocarcinoma); assay: Cell viability analysis, lung cancer HI650; settings: Homo sapiens, NCI-H1650, 72 h
[14] = test system: HeLa (Cervix Adenocarcinoma); assay: Cell viability analysis, cervical cancer HeLa; settings: Homo sapiens, HeLa, 72 h
[15] = test system: SAS (Tongue squamous cell carcinoma); assay: Cell viability analysis, tongue cancer SAS; settings: Homo sapiens, 72 h, read-out: The results of antibiotic drug inhibiting cancer cell lines (cell viability analysis), SAS
[16] = test system: Hep3B (hepatocellular carcinoma); assay: Cell viability analysis, hepatic cancer Hep3B; settings: Homo sapiens, Hep3B, 72 h, read-out: The results of antibiotic drug inhibiting cancer cell lines (cell viability analysis), Hep3B
[17] = test system: PC3 (p53−) (Prostate Adenocarcinoma); assay: Cell viability analysis, prostate cancer PC3; settings: Homo sapiens, 72 h
[18] = test system: BCC (basal cell carcinoma); assay: Cell viability analysis, skin cancer BCC; settings: Homo sapiens, 72 h, read-out: The results of antibiotic drug inhibiting cancer cell lines (cell viability analysis), BCC
[19] = test system: HL-60 (Acute Promyelocytic Leukemia); assay: Cell viability analysis, leukemia HL-60; settings: Homo sapiens, HL-60, 72 h, read-out: cell viability (survival rate), HL-60, drug 10 μM, 72 hours, WST-1, OD450 nm
[20] = test system: AGS (Gastric Adenocarcinoma); assay: Cell viability analysis, gastric cancer AGS; settings: Homo sapiens, 72 h
[21] = test system: A549 (Lung Adenocarcinoma); assay: Cell viability analysis, lung cancer A549; settings: Homo sapiens, A549, 72 h
[22] = test system: TSGH-8301 (Urinary Bladder Carcinoma); assay: Cell viability analysis, bladder cancer TSGH-8301; settings: Homo sapiens, 72 h
[23] = test system: MCF7 (Mammary Gland, Adenocarcinoma); assay: Cell viability analysis, breast cancer MCF7; settings: Homo sapiens, MCF7, 72 h
[24] = test system: C-33A (Cervical carcinoma); assay: Cell viability analysis, cervical cancer C-33A; settings: Homo sapiens, C-33-A, 72 h, read-out: The results of antibiotic drug inhibiting cancer cell lines (cell viability analysis), C-33A
[25] = test system: LoVo (Colorectal Adenocarcinoma); assay: Cell viability analysis, colon cancer LoVo; settings: Homo sapiens, LoVo, 72 h
[26] = read-out: The results of antibiotic drug inhibiting cancer cell lines (cell viability analysis), MKN-45, MKN-45, repeated experiment
[27] = read-out: cell viability (survival rate), MKN-45, drug 10 μM, 72 hours, WST-1, OD450 nm
[28] = read-out: The results of antibiotic drug inhibiting cancer cell lines (cell viability analysis), A375, A375, repeated experiment
[29] = read-out: cell viability (survival rate), A375, drug 10 μM, 72 hours, WST-1, OD450 nm
[30] = read-out: The results of antibiotic drug inhibiting cancer cell lines (cell viability analysis), HepG2, HepG2, repeated experiment
[31] = read-out: cell viability (survival rate), HepG2, drug 10 μM, 72 hours, WST-1, OD450 nm
[32] = read-out: The results of antibiotic drug inhibiting cancer cell lines (cell viability analysis), H1650, H1650, repeated experiment
[33] = read-out: cell viability (survival rate), H1650, drug 10 μM, 72 hours, WST-1, OD450 nm
[34] = read-out: The results of antibiotic drug inhibiting cancer cell lines (cell viability analysis), HeLa, repeated experiment
[35] = read-out: cell viability (survival rate), HeLa, drug 10 μM, 72 hours, WST-1, OD450 nm
[36] = read-out: The results of antibiotic drug inhibiting cancer cell lines (cell viability analysis), AGS, repeated experiment
[37] = read-out: cell viability (survival rate), AGS, drug 10 μM, 72 hours, WST-1, OD450 nm
[38] = read-out: The results of antibiotic drug inhibiting cancer cell lines (cell viability analysis), A549, A549, repeated experiment
[39] = read-out: cell viability (survival rate), A549, drug 10 μM, 72 hours, WST-1, OD450 nm
[40] = read-out: The results of antibiotic drug inhibiting cancer cell lines (cell viability analysis), TSGH-8301, TSGH-8301, repeated experiment
[41] = read-out: cell viability (survival rate), TSGH, drug 10 μM, 72 hours, WST-1, OD450 nm
[42] = read-out: The results of antibiotic drug inhibiting cancer cell lines (cell viability analysis), MCF-7, MCF-7, repeated experiment
[43] = read-out: cell viability (survival rate), MCF7, drug 10 μM, 72 hours, WST-1, OD450 nm

| SMILES | viability at 10 µM [1] [%] | viability at 10 µM [2] [%] | viability at 10 µM [3, 26] [%] | viability at 10 µM [3, 27] [%] | viability at 10 µM [4, 28] [%] | viability at 10 µM [4, 29] [%] | viability at 10 µM [5, 30] [%] | viability at 10 µM [5, 31] [%] | viability at 10 µM [6] [%] | viability at 10 µM [7] [%] | viability at 10 µM [8] [%] | inhibition effect on different cancer cell lines [9] | viability at 10 µM [10] [%] | viability at 10 µM [11] [%] | viability at 10 µM [12] [%] | viability at 10 µM [13, 32] [%] | viability at 10 µM [13, 33] [%] | viability at 10 µM [14, 34] [%] | viability at 10 µM [14, 35] [%] | viability at 10 µM [15] [%] | also measured |
| --- | --- | --- | --- | --- | --- | --- | --- | --- | --- | --- | --- | --- | --- | --- | --- | --- | --- | --- | --- | --- | --- |
| CO[C@H]1/C=C/O[C@@]2(C)Oc3c(C)c(O)c4c(O)c(c5c(nc6cc(C)ccn65)c4c3C2=O)NC(=O)/C(C)=C\C=C\[C@H](C)[C@H](O)[C@@H](C)[C@@H](O)[C@@H](C)[C@H](OC(C)=O)[C@@H]1C [Rifaximin (Xifaxan), Rifaximin] | 96.8 | 89 | 93.5 | 52.7 | 98.2 | 59.5 | 115 | 102 | 87.6 | 72.9 | 71.2 | significant inhibition effect | 98.7 | 88 | 100 | 69.5 | 82.4 | 106 | 54 | 69.8 | viability at 10 µM [16]: 110%; viability at 10 µM ([17]; read-out: The results of antibiotic drug inhibiting cancer cell lines (cell viability analysis), PC-3, PC-3, repeated experiment): 95.3%; viability at 10 µM ([17]; read-out: cell viability (survival rate), PC3, drug 10 μM, 72 hours, WST-1, OD450 nm): 67.1%; viability at 10 µM [18]: 81.8%; viability at 10 µM [19]: 100%; viability at 10 µM [20, 36]: 98.1%; viability at 10 µM [20, 37]: 93.2%; viability at 10 µM [21, 38]: 108%; viability at 10 µM [21, 39]: 35.1%; viability at 10 µM [22, 40]: 114%; viability at 10 µM [22, 41]: 61.3%; viability at 10 µM [23, 42]: 89.9%; viability at 10 µM [23, 43]: 40.1%; viability at 10 µM [24]: 107% |
| O=c1[nH]c(=O)n([C@H]2C[C@H](O)[C@@H](CO)O2)cc1C(F)(F)F [Trifluridine (Viroptic), Trifluridine] | 55.4 | 73.1 | 89.5 | 43.6 | 59.4 | 48.6 | 85.6 | 90.2 | 37.9 | 61.2 | 62.1 | significant inhibition effect | 75.1 | 81.4 | 105 | 78 | 71 | 86.9 | 51.8 | 33.5 | viability at 10 µM [16]: 77.6%; viability at 10 µM ([25]; read-out: The results of antibiotic drug inhibiting cancer cell lines (cell viability analysis), LoVo, repeated experiment): 62.5%; viability at 10 µM ([25]; read-out: cell viability (survival rate), LoVo, drug 10 μM, 72 hours, WST-1, OD450 nm): 72.1%; viability at 10 µM [18]: 83.3%; viability at 10 µM [19]: 88.9%; viability at 10 µM [20, 36]: 83.2%; viability at 10 µM [20, 37]: 64.4%; viability at 10 µM [21, 38]: 61.6%; viability at 10 µM [21, 39]: 36.5%; viability at 10 µM [22, 40]: 86.4%; viability at 10 µM [22, 41]: 51.3%; viability at 10 µM [23, 42]: 79.6%; viability at 10 µM [23, 43]: 36.3%; viability at 10 µM [24]: 66.5% |
